# Source: patent publication US4772602A, “N-substituted 3,4-dihydropyrimidine derivatives as agents for treating disorders of cardiovascular system” (Suntory Limited, priority 1985, dated 1988)
# Columns and labels:
# [1] = test system: isolated guinea pig hearts (coronary artery); assay: coronary vascular dilative effect in isolated guinea pig hearts (Langendorff's method); set-up: species or system guinea pig (Heartley); settings: 37° C., 0.1 ml administered into the coronary artery
# Experimental: The coronary vascular dilative effect of 3N-substituted 3,4-dihydropyrimidine derivatives was tested.
# Heartley guinea pigs (weight 400-500 g) were killed by a blow on the head and their hearts were immediately isolated. The hearts were perfused with Krebs-Henseleit solution bubbled with a mixture of 95% O2 +5% CO2 and maintained at 37° C. at a constant rate of 6 ml/minute according to the Langendorff's method [J. Pharmacol. Methods 2, 143 (1979)]. The perfusion pressure was measured by a pressure transducer continuously. Samples were prepared by emulsifying 1 mg of a test compound in 1 ml of a mixture of dimethylsulfoxide and physiological saline solution (1:9) and diluting with physiological saline solution to the predetermined concentration. 0.1 ml of the diluted solution was administered into the coronary artery via a rubber tube connected to an aorta cannula to obtain ED50 (μg/heart) data as shown in Table 3. The numbers of the compounds in the Table correspond respectively to those of the working examples described above.
# vertebral artery [2] = assay: vascular resistance of the vertebral artery in anesthetized dogs (ED30); format: in vivo, dog; settings: Canis lupus familiaris, intravenous injection
# Experimental: The pharmacological effect (ED30) of the compounds of the present invention with respect to the vascular resistance of the vertebral artery in anesthetized dogs was treated by the following procedure.
# Adult dogs of either sex (7-14 kg in body weight) were anesthetized with at first thiopental sodium (35 mg/kg, intraperitoneal), anesthetized with urethane (400 mg/kg, intravenous) and chloralose (60 mg/kg, intravenous) and kept under artificial respiration throughout the experiment. After thoracotomy at the left first intercostal space, the vertebral artery was exposed and blood flow was measured with intracorporeal flow probe connected to an electromagnetic flowmeter (MF-27, Nihon Kohden).
# At the same time, continuous measurement of the following parameters was made: systemic blood pressure (mean pressure) at the right femoral artery, the limb lead II ECG, the heart rate with a tachometer triggered by the R wave of ECG, and the vascular resistance determined by loading a electronic divider unit (EO-601 G, Nihon Kohden) with the mean values of blood pressure and vertebral artery blood flow. All of these parameters were recorded simultaneously on a polygraph (RM-600, Nihon Kohden).
# All the test compounds were injected through a cannula inserted into the femoral vein.
# The ED30 (μg/kg) values obtained by intravenous injection are listed in Table 4, wherein the Compound Numbers are keyed to the Example Numbers.
# vertebral artery [3] = assay: time course of reduction of the resistance of the vertebral artery in anesthetized dogs (T1/2); format: in vivo, dog; settings: ED30 doses injected
# Experimental: Selected compounds of the present invention were tested for their ability to reduce the resistance of the vertebral artery in anesthetized dogs.
# The animals were injected with the ED30 doses of test compounds and the time course of changes in the vasucular resistance were studied as shown schematically in FIG. 1. From the curve shown in FIG. 1, the values of T1/2 (min) (the time to reach 50% of the resistance drop). The results are shown in Table 5, in which the compound numbers correspond to the Example numbers.
structure (smiles),measurement,setting,value
"CC1=NC(C)=C(C(=O)OCC2CC2)C(c2ccccc2[N+](=O)[O-])N1C(=O)OCCN(C)Cc1ccccc1 (stereo not drawn) [Compound 1, 3-{2-(N-benzyl-N-methylamino)ethoxycarbonyl}-5-cyclopropylmethoxycarbonyl-2,6-dimethyl-4-(2-nitrophenyl)-3,4-dihydropyrimidine]",ED50 (coronary vascular dilative effect),[1],0.013 μg/heart
same,ED30,vertebral artery [2],0.58 µg/kg
CC1=NC(C)=C(C(=O)OCC2CC2)C(c2cccc([N+](=O)[O-])c2)N1C(=O)OCCN(C)Cc1ccccc1 (stereo not drawn) [Compound 2],ED50 (coronary vascular dilative effect),[1],0.52 μg/heart
same,ED30,vertebral artery [2],0.84 µg/kg
CCOC(=O)C1=C(C)N=C(C)N(C(=O)OCCN(C)Cc2ccccc2)C1c1ccccc1[N+](=O)[O-] (stereo not drawn) [Compound 3],ED50 (coronary vascular dilative effect),[1],0.0095 μg/heart
same,ED30,vertebral artery [2],0.75 µg/kg
COc1ccc(CN(C)CCOC(=O)N2C(C)=NC(C)=C(C(=O)OCC3CC3)C2c2ccccc2[N+](=O)[O-])cc1 (stereo not drawn) [Compound 5],ED50 (coronary vascular dilative effect),[1],0.036 μg/heart
same,ED30,vertebral artery [2],2.4 µg/kg
CC1=NC(C)=C(C(=O)OCC2CC2)C(c2ccccc2[N+](=O)[O-])N1C(=O)OCCN(C)C(c1ccccc1)c1ccccc1 (stereo not drawn) [Compound 8],ED30,vertebral artery [2],4.1 µg/kg
CCCCN(CCOC(=O)N1C(C)=NC(C)=C(C(=O)OCC2CC2)C1c1ccccc1[N+](=O)[O-])Cc1ccccc1 (stereo not drawn) [Compound 14],ED30,vertebral artery [2],2.1 µg/kg
CCN(CCOC(=O)N1C(C)=NC(C)=C(C(=O)OCC2CC2)C1c1ccccc1[N+](=O)[O-])c1ccccc1 (stereo not drawn) [Compound 15],ED30,vertebral artery [2],2.5 µg/kg
CC1=NC(C)=C(C(=O)OCC2CC2)C(c2ccccc2[N+](=O)[O-])N1C(=O)OCCCN(C)Cc1ccccc1 (stereo not drawn) [Compound 16],ED30,vertebral artery [2],3.8 µg/kg
CC1=NC(C)=C(C(=O)OCC2CC2)C(c2ccccc2[N+](=O)[O-])N1C(=O)OCCN(C)CCc1ccccc1 (stereo not drawn) [Compound 17],ED30,vertebral artery [2],3.4 µg/kg
CC1=NC(C)=C(C(=O)OCC2CC2)C(c2ccccc2[N+](=O)[O-])N1C(=O)OCC1CCCN1Cc1ccccc1 (stereo not drawn) [Compound 19],ED30,vertebral artery [2],1.4 µg/kg
CC1=NC(C)=C(C(=O)OCC2CC2)C(c2ccccc2[N+](=O)[O-])N1C(=O)OCCN1CCOCC1 (stereo not drawn) [Compound 20],ED30,vertebral artery [2],4 µg/kg
CC1=NC(C)=C(C(=O)OCC2CC2)C(c2ccccc2[N+](=O)[O-])N1C(=O)OCCN1CCN(Cc2ccccc2)CC1 (stereo not drawn) [Compound 24],ED50 (coronary vascular dilative effect),[1],0.01 μg/heart
CC1=NC(C)=C(C(=O)OCC2CC2)C(c2ccccc2[N+](=O)[O-])N1C(=O)OCCN1CCN(c2cccc(C(F)(F)F)c2)CC1 (stereo not drawn) [Compound 26],ED30,vertebral artery [2],4.1 µg/kg
CC1=NC(C)=C(C(=O)OC(C)C)C(c2ccccc2[N+](=O)[O-])N1C(=O)OCCc1ccccn1 (stereo not drawn) [Compound 27],ED50 (coronary vascular dilative effect),[1],0.029 μg/heart
CC1=NC(C)=C(C(=O)OCC2CC2)C(c2ccccc2[N+](=O)[O-])N1C(=O)OCCN(C/C=C/c1ccccc1)Cc1ccccc1 (stereo not drawn) [Compound 29],ED30,vertebral artery [2],2.5 µg/kg
same,T1/2 (the time to reach 50% of the resistance drop),vertebral artery [3],9.5 min
CC1=NC(C)=C(C(=O)OCC2CC2)C(c2ccccc2[N+](=O)[O-])N1C(=O)OCCN(C)Cc1ccc2ccccc2c1 (stereo not drawn) [Compound 30],ED30,vertebral artery [2],0.6 µg/kg
CC1=NC(C)=C(C(=O)OCC2CC2)C(c2ccccc2[N+](=O)[O-])N1C(=O)OCCN(C/C=C/c1ccccc1)Cc1cccs1 (stereo not drawn) [Compound 32],ED30,vertebral artery [2],3.2 µg/kg
same,T1/2 (the time to reach 50% of the resistance drop),vertebral artery [3],7.0 min
CC1=NC(C)=C(C(=O)OCC2CC2)C(c2ccccc2[N+](=O)[O-])N1C(=O)OCCN(C/C=C/c1ccccc1)C/C=C/c1ccccc1 (stereo not drawn) [Compound 33],T1/2 (the time to reach 50% of the resistance drop),vertebral artery [3],30.5 min
CC1=NC(C)=C(C(=O)OCC2CC2)C(c2ccccc2[N+](=O)[O-])N1C(=O)OCCN(C)Cc1ccccn1 (stereo not drawn) [Compound 35],ED30,vertebral artery [2],4.2 µg/kg
CC1=NC(C)=C(C(=O)OCC2CC2)C(c2cccc([N+](=O)[O-])c2)N1C(=O)OCCN(CCCc1ccccc1)Cc1ccccc1 (stereo not drawn) [Compound 36],T1/2 (the time to reach 50% of the resistance drop),vertebral artery [3],12.0 min
CC1=NC(C)=C(C(=O)OC(C)C)C(c2cccc([N+](=O)[O-])c2)N1C(=O)OCCN(CCCc1ccccc1)Cc1ccccc1 (stereo not drawn) [Compound 37],T1/2 (the time to reach 50% of the resistance drop),vertebral artery [3],10.3 min
CCOC(=O)C1=C(C)N=C(C)N(C(=O)OCCN(CCCc2ccccc2)Cc2ccccc2)C1c1cccc([N+](=O)[O-])c1 (stereo not drawn) [Compound 38],ED30,vertebral artery [2],4.2 µg/kg
same,T1/2 (the time to reach 50% of the resistance drop),vertebral artery [3],8.0 min
CC1=NC(C)=C(C(=O)OC(C)C)C(c2ccccc2[N+](=O)[O-])N1C(=O)OCCN(CCCc1ccccc1)Cc1ccccc1 (stereo not drawn) [Compound 39],ED30,vertebral artery [2],2.3 µg/kg
CCOC(=O)C1=C(C)N=C(C)N(C(=O)OCCN(CCCc2ccccc2)Cc2ccccc2)C1c1ccccc1[N+](=O)[O-] (stereo not drawn) [Compound 40],ED30,vertebral artery [2],1.5 µg/kg
CC1=NC(C)=C(C(=O)OC(C)C)C(c2ccccc2[N+](=O)[O-])N1C(=O)OCCN(Cc1ccccc1)Cc1ccc2ccccc2c1 (stereo not drawn) [Compound 45],ED30,vertebral artery [2],1.8 µg/kg
same,T1/2 (the time to reach 50% of the resistance drop),vertebral artery [3],15.6 min
CCCOC(=O)C1=C(C)N=C(C)N(C(=O)OCCN(Cc2ccccc2)Cc2ccccc2)C1c1ccccc1[N+](=O)[O-] (stereo not drawn) [Compound 46],ED30,vertebral artery [2],2 µg/kg
CCCCOC(=O)C1=C(C)N=C(C)N(C(=O)OCCN(Cc2ccccc2)Cc2ccccc2)C1c1ccccc1[N+](=O)[O-] (stereo not drawn) [Compound 47],T1/2 (the time to reach 50% of the resistance drop),vertebral artery [3],13.0 min
COC(=O)C1=C(C)N=C(C)N(C(=O)OCCN(Cc2ccccc2)Cc2ccccc2)C1c1ccccc1[N+](=O)[O-] (stereo not drawn) [Compound 48],ED30,vertebral artery [2],2 µg/kg
CC1=NC(C)=C(C(=O)OC(C)C)C(c2ccccc2[N+](=O)[O-])N1C(=O)OCCN(Cc1ccccc1)Cc1ccccc1 (stereo not drawn) [Compound 49],ED30,vertebral artery [2],2.8 µg/kg
CC1=NC(C)=C(C(=O)OC(C)C)C(c2ccccc2[N+](=O)[O-])N1C(=O)OCCN(Cc1ccccc1)c1ccccc1 (stereo not drawn) [Compound 50],ED30,vertebral artery [2],0.74 µg/kg
CC1=NC(C)=C(C(=O)OCC2CC2)C(c2ccccc2[N+](=O)[O-])N1C(=O)OCCN(Cc1ccccc1)Cc1ccccc1 (stereo not drawn) [Compound 52],ED30,vertebral artery [2],1.5 µg/kg
same,T1/2 (the time to reach 50% of the resistance drop),vertebral artery [3],8.0 min
CC1=NC(C)=C(C(=O)OC(C)C)C(c2ccccc2[N+](=O)[O-])N1C(=O)OCCN(CCCc1ccccc1)c1ccccc1 (stereo not drawn) [Compound 53],ED30,vertebral artery [2],2.5 µg/kg
same,T1/2 (the time to reach 50% of the resistance drop),vertebral artery [3],7.7 min
CC1=NC(C)=C(C(=O)OC(C)C)C(c2ccccc2[N+](=O)[O-])N1C(=O)OCCN(CCc1ccccc1)c1ccccc1 (stereo not drawn) [Compound 54],ED30,vertebral artery [2],1.4 µg/kg
CC1=NC(C)=C(C(=O)OCC(C)C)C(c2ccccc2[N+](=O)[O-])N1C(=O)OCCN(Cc1ccccc1)Cc1ccccc1 (stereo not drawn) [Compound 55],ED30,vertebral artery [2],3.8 µg/kg
same,T1/2 (the time to reach 50% of the resistance drop),vertebral artery [3],9.2 min
COC(=O)C1=C(C)N=C(C)N(C(=O)OCCN(CCCc2ccccc2)Cc2ccccc2)C1c1ccccc1[N+](=O)[O-] (stereo not drawn) [Compound 57],ED30,vertebral artery [2],0.48 µg/kg
CC1=NC(C)=C(C(=O)OC(C)C)C(c2ccccc2[N+](=O)[O-])N1C(=O)OCCN(Cc1ccccn1)c1ccccc1 (stereo not drawn) [Compound 58],ED30,vertebral artery [2],2.5 µg/kg
CC1=NC(C)=C(C(=O)OCC(C)C)C(c2ccccc2[N+](=O)[O-])N1C(=O)OCCN(Cc1ccccc1)c1ccccc1 (stereo not drawn) [Compound 60],ED30,vertebral artery [2],1.7 µg/kg
CCOC(=O)C1=C(C)N=C(C)N(C(=O)OCCN(Cc2ccccc2)Cc2ccccc2)C1c1ccccc1[N+](=O)[O-] (stereo not drawn) [Compound 61],ED30,vertebral artery [2],1.4 µg/kg
CC1=NC(C)=C(C(=O)OC(C)C)C(c2ccccc2[N+](=O)[O-])N1C(=O)OCCN(CCc1ccccc1)Cc1ccccc1 (stereo not drawn) [Compound 62],ED30,vertebral artery [2],1.2 µg/kg
CC1=NC(C)=C(C(=O)OCC2CC2)C(c2ccccc2[N+](=O)[O-])N1C(=O)OCCc1cccs1 (stereo not drawn) [Compound 63],ED30,vertebral artery [2],1.3 µg/kg
CC1=NC(C)=C(C(=O)OCC2CC2)C(c2ccccc2[N+](=O)[O-])N1C(=O)OCCSc1nc2ccccc2s1 (stereo not drawn) [Compound 64],ED30,vertebral artery [2],0.93 µg/kg
CC1=NC(C)=C(C(=O)OC(C)C)C(c2ccccc2[N+](=O)[O-])N1C(=O)OCCN(CCCc1ccccc1)CCCc1ccccc1 (stereo not drawn) [Compound 66],T1/2 (the time to reach 50% of the resistance drop),vertebral artery [3],11.9 min
CC1=NC(C)=C(C(=O)OC(C)C)C(c2ccccc2[N+](=O)[O-])N1C(=O)OCCN(Cc1ccccc1)Cc1cccs1 (stereo not drawn) [Compound 67],ED30,vertebral artery [2],1 µg/kg
CC1=NC(C)=C(C(=O)OC(C)C)C(c2ccccc2[N+](=O)[O-])N1C(=O)OCCN(Cc1ccccc1)Cc1ccccn1 (stereo not drawn) [Compound 68],ED30,vertebral artery [2],4.4 µg/kg
CC1=NC(C)=C(C(=O)OC(C)C)C(c2cccc([N+](=O)[O-])c2)N1C(=O)OCCN(Cc1ccccc1)c1ccccc1 (stereo not drawn) [Compound 70],ED30,vertebral artery [2],3 µg/kg
COC(=O)C1=C(C)N=C(C)N(C(=O)OCCN(Cc2ccccc2)c2ccccc2)C1c1ccccc1[N+](=O)[O-] (stereo not drawn) [Compound 71],ED30,vertebral artery [2],5 µg/kg
